Laboratory results reported in PubChem BioAssay (NCI).
“And” between values parts separate entries of the source, which are not always exact repeats. Equal values may be shown once.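 Step 1: Grow cells in 96-well plates. Step 2: Expose to compound for 48 hours at 5 concentrations. Step 3: Interpolate endpoints linearly; if unreached, use highest concentration. Here, GI50 denotes the concentration required for 50% inhibition of growth. TGI marks complete inhibition of growth.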

Assays:
Assay in all cases: NCI tumour cell line growth inhibition, 48 h
DMS 273 small cell lung = system: DMS 273 small cell lung
LXFL 529 NSCLC = system: LXFL 529 NSCLC
RXF-631 renal = system: RXF-631 renal
HOP-18 NSCLC = system: HOP-18 NSCLC
SN12K1 renal = system: SN12K1 renal
P388/ADR leukemia = system: P388/ADR leukemia
P388 leukemia = system: P388 leukemia

CCN(CC)CCCNC(=O)c1ccccc1Nc1c(Cl)cccc1Cl was tested. Which TGI (DMS 273 small cell lung) did it give?
Its TGI is 31.1 µM.

What about the TGI (LXFL 529 NSCLC) of the same compound?
Its TGI is 28.8 µM.

Which results are given for NCCNc1ccc(NCCN)c2c1C(=O)c1c(O)ccc(O)c1C2=O?
TGI (RXF-631 renal): 1.13 µM; GI50 (LXFL 529 NSCLC): 0.105 µM; TGI (LXFL 529 NSCLC): 0.905 µM and 1.03 µM; GI50 (HOP-18 NSCLC): 0.0263 µM; TGI (HOP-18 NSCLC): 3.82 µM and 0.77 µM

O=[N+]([O-])c1cc(C(F)(F)F)cc2c1SC1=Nc3ccccc3CN12 was tested. Which TGI (DMS 273 small cell lung) did it give?
The TGI was greater than 100 µM.

And the TGI (SN12K1 renal)?
Its TGI is greater than 100 µM.

And the TGI (HOP-18 NSCLC)?
The TGI was greater than 100 µM.

What about the TGI (P388/ADR leukemia) of the same compound?
The TGI was greater than 100 µM.

What about the TGI (P388 leukemia) of the same compound?
The TGI was greater than 100 µM.

Which results are given for CC(=O)C(C(=O)C(=O)Nc1cc(Cl)c(Cl)cc1Cl)c1csc(N)n1 (stereo not given)?
TGI (RXF-631 renal): > 100 µM; TGI (DMS 273 small cell lung): > 100 µM; TGI (LXFL 529 NSCLC): > 100 µM

Which results are given for C[N+]1(C)C/C(=C\C=C\c2ccccc2)C(=O)/C(=C/C=C/c2ccccc2)C1?
TGI (LXFL 529 NSCLC): 11.6 µM; TGI (HOP-18 NSCLC): > 61.1 µM

Which TGI (DMS 273 small cell lung) does the source give for Nc1n[nH]c(N)n1 here?
The TGI was 6450 µM.

And the TGI (SN12K1 renal)?
The TGI was greater than 10000 µM.

What about the TGI (HOP-18 NSCLC) of the same compound?
The TGI was greater than 10000 µM.

What about the TGI (P388/ADR leukemia) of the same compound?
Its TGI is 8070 µM.

And the TGI (P388 leukemia)?
Its TGI is 4240 µM.

With CCCCCC1CC(C(C)=O)CN1c1ccc(F)cc1 (stereo not given) as the compound, how does the TGI (DMS 273 small cell lung) read?
Its TGI is greater than 100 µM.

And the TGI (LXFL 529 NSCLC)?
The TGI was greater than 100 µM.

What about the TGI (HOP-18 NSCLC) of the same compound?
Its TGI is 82.5 µM.
